Where “and” joins values, the source holds several entries; their conditions need not be identical. Equal values may be shown once.
Key:
SCRM-FAMA heterodimer = target: T1, SCRM-FAMA heterodimer (Arabidopsis thaliana, UniProt Q56YJ8); assay: Y2H growth and quantitative α-galactosidase assay; type: cell-based; conditions: for a-galactosidase: yeast FAMA∆N+SCRM, individual replicates, listed as AYSJ929
T1 construct: truncated SPCH and FAMA proteins lacking their N-terminal domain were used in yeast; expressed in transfected cells; host or cells: yeast strain AH109
Protocol: Y2H assays were performed using the Matchmaker^TM Two-Hybrid System (Clontech). Bait (pGBKT7) and prey (pGADT7) constructs were co-transformed into the yeast strain AH109 using Frozen-EZ Yeast Transformation II Kit (Zymo Research, T2001). The resulting transformants were spotted on SD ( − Leu, −Trp) and SD ( − Trp, −Leu, −His) selection media containing different concentrations of 3-amino-1,2,4-triazole (Sigma, A8056) as previously reported. Quantitative α-galactosidase assay was also performed according to manufactural instruction (Clontech). Briefly, the transformants were incubated in 2 ml SD medium with 0, 10, 50 100 μM Stomidazolone (3) or SIM3* (7) with rotary shake (220 rpm) at 30 °C overnight. The cultured media containing yeast were transferred to microtubes and centrifuged to obtain the supernatant. The colorimetric assay was performed by incubating 8 μL of supernatant with 24 μL Assay Buffer that contains 0.5 M sodium acetate (pH 4.5) (Nakalai tesque, 31137-25): 100 mM p-nitrophenyl α-D-Galactopyranoside Solution (Sigma N0877) = 2:1 (v/v) at 30 °C for 60 min, then terminated by adding 960 μL 1X Stop Solution (0.1 M sodium carbonate, Fujifilm Wako 195-01582). After OD410 was recorded, α-galactosidase units were calculated according to the protocol (Clontech, P3024-1).

MUTE_ACTLR133A_R134A = target: T2, MUTE_ACTLR133A_R134A (Arabidopsis thaliana, UniProt Q9M8K6, R133A/R134A); assay: ITC direct binding; parameters: species or system A. thaliana; conditions: MUTE_ACTL R133A_R134A
T2 construct: MUTE-ACTL (114-202); made in house; host or cells: E. coli BL21

SPCH_ACTL = target: T3, SPCH_ACTL (Arabidopsis thaliana, UniProt Q700C7); assay: ITC direct binding; parameters: species or system A. thaliana
T3 construct: SPCH-ACTL (285-364); GST (N, cleaved yes); made in house; host or cells: E. coli BL21

MUTE_ACTLE162A_E163A = target: T4, MUTE_ACTLE162A_E163A (Arabidopsis thaliana, UniProt Q9M8K6, E162A/E163A); assay: ITC direct binding; parameters: species or system A. thaliana
T4 construct: MUTE-ACTL (114-202); made in house; host or cells: E. coli BL21
T4 sequence (Q9M8K6 114-202 E162A/E163A): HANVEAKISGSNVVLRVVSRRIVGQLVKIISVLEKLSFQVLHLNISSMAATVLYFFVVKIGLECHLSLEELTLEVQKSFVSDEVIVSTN

T1 sequence (Q56YJ8 190-414, one chain of several): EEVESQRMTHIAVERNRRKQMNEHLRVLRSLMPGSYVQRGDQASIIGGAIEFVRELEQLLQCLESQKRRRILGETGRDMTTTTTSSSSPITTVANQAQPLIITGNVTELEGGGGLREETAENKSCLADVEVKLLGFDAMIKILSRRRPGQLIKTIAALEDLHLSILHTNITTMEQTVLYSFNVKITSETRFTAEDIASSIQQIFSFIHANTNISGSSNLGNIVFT
T3 sequence (Q700C7 285-364): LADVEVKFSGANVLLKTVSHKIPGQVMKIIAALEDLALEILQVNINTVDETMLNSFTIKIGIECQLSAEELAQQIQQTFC
T2 sequence (Q9M8K6 114-202 R133A/R134A): as the sequence (Q9M8K6 114-202 E162A/E163A) above, with R20A, R21A, A49E, A50E counted along it

Compound: O=C1C(c2ccccc2)=NC(NS(=O)(=O)c2ccccc2)(c2ccccc2)N1S(=O)(=O)c1ccccc1 (stereo not drawn) [Stomidazolone]
- effect in quantitative α-galactosidase assay (SCRM-FAMA heterodimer; 0, 10, 50, 100 μM): inhibits these stomatal bHLH heterodimers in a dose-dependent manner
- effect on association in Y2H growth assay (SCRM-FAMA heterodimer; 50 μM, 1 mM 3-AT, N-terminally truncated FAMA): diminishes
- a-galactosidase (SCRM-FAMA heterodimer; 10 µM): 9.32 milliunits /(ml x cell) and 7.38 milliunits /(ml x cell) and 8.74 milliunits /(ml x cell)
- a-galactosidase (SCRM-FAMA heterodimer; 50 µM): 7.60 milliunits /(ml x cell) and 6.41 milliunits /(ml x cell) and 6.17 milliunits /(ml x cell)
- a-galactosidase (SCRM-FAMA heterodimer; 100 µM): 5.72 milliunits /(ml x cell) and 5.36 milliunits /(ml x cell) and 4.71 milliunits /(ml x cell)
- -T△S (MUTE_ACTLR133A_R134A): 5.1 ± 0.2
- Kd (MUTE_ACTLR133A_R134A): 127 ± 28.5 µM
- △G (MUTE_ACTLR133A_R134A): -3.8 ± 0.2
- △H (MUTE_ACTLR133A_R134A): -8.9 ± 0.4
- -T△S (SPCH_ACTL): 3.4 ± 0.2
- Kd (SPCH_ACTL): 96.8 ± 7.6 µM
- △G (SPCH_ACTL): -2.1 ± 0.2
- △H (SPCH_ACTL): -5.5 ± 0.3
- -T△S (MUTE_ACTLE162A_E163A; MUTE_ACTL E162A_E163A): 3.1 ± 0.3
- Kd (MUTE_ACTLE162A_E163A; MUTE_ACTL E162A_E163A): 85.5 ± 5.5 µM
- △G (MUTE_ACTLE162A_E163A; MUTE_ACTL E162A_E163A): -4.5 ± 0.2
- △H (MUTE_ACTLE162A_E163A; MUTE_ACTL E162A_E163A): -7.6 ± 0.5
- increase in the Kd value versus wild-type MUTE (MUTE_ACTLE162A_E163A; authors' response to reviewers, data of the original Fig. S3): ~5 fold

— publication PMC11500415, “Chemical inhibition of stomatal differentiation by perturbation of the master-regulatory bHLH heterodimer via an ACT-Like domain” (Nature Communications, 2024)
